US4400199A, “Thiolcarbamate compounds and their use as herbicides” (priority 1981, dated 1983)
Converted amounts (≈) assume the structure as drawn.

Experiments:
[1] = test system: Hotarui (Scirpus juncoides); experiment: Experiment 2: herbicidal effects against Hotarui (pot test, granules); type: in vivo; details: 25 days
[2] = Experiment 3: acute toxicity to fish; type: in vivo, Black-carp fry; details: carp, water
Experimental: With respect to the compounds according to the present invention and the comparative compounds (Compound 10, Compound 12 and Compound 13), there were conducted tests on acute toxicity to carps.
In 25-liter water tanks made of glass was charged 20 liters of water. 12 Black-carp fry were released to each of the water tanks and bred while feeding for 7 days. Then, the whole quantity of water in each of the tanks was replaced with fresh water, and feeding to the carps was stopped. After three days, a prescribed amount of 1 weight % solution of a test compound in acetone was added to water in the water tank.
The number of survival fish in each tank was counted after 24 hours, 48 hours and 96 hours, successively.
The TLm (median tolerance limit=lethal concentration 50%) was determined by the Doudorff's method (Sewage & Ind. Wastes 23 (1951) 1380-1397).

[3] = test system: Mizugayatsuri (Cyperus serotinus); experiment: Experiment 2: herbicidal effects against Mizugayatsuri (pot test, granules); type: in vivo; details: 25 days
[4] = test system: broad-leaf weeds; experiment: Experiment 2: herbicidal effects against broad-leaf weeds (pot test, granules); type: in vivo; details: 25 days
[5] = test system: barnyard grass; experiment: Experiment 2: herbicidal effects against barnyard grass (pot test, granules); type: in vivo, Echinochloa crus-galli; details: 2.5 leaf-stage, 25 days
[6] = test system: barnyard grass (Echinochloa crus-galli); experiment: Experiment 1: herbicidal effects against barnyard grass (pot test, emulsifiable concentrate); type: in vivo; details: 25 days
[7] = Experiment 4: subacute toxicity to fish; type: in vivo, 2-year-old carps; details: carp, water; 0.2 ppm; 3 weeks; read-out: Survival rate after 3 weeks
Experimental: (§1) With respect to the compounds according to the present invention and the comparative compounds listed in Table 4, there were conducted tests on subacute toxicity to 2-year-old carps having an average weight of 20 g.
(§2) Ten 2-year-old carps were released in each of 25-liter water tanks equipped with an air-blowing apparatus and acclimatized to the surroundings while feeding for 10 days. Water in each of the water tanks was continuously replaced with fresh water so that the residence time of water in the water tanks is 6 hours. Each test compound was added to a predetermined quantity of supply water to prepare a 0.2 ppm aqueous solution of each compound, and each of the aqueous solutions was continuously added to the water in the tank. After three weeks, the hematocrit values of all the survival carps were determined. The hematocrit value used herein is intended to mean a volume percentage of erythrocyte contained in the blood.

[8] = test system: carps; experiment: Experiment 4: subacute toxicity to fish; type: in vivo, 2-year-old carps; details: 0.2 ppm; 3 weeks
Experimental: as §1, §2

[9] = 1.5 leaf-stage of barnyard grass, 150 g/10a.
[10] = 1.5 leaf-stage of barnyard grass, 300 g/10a.
[11] = 1.5 leaf-stage of barnyard grass, 600 g/10a.
[12] = 3 leaf-stage of barnyard grass, 150 g/10a.
[13] = 3 leaf-stage of barnyard grass, 300 g/10a.
[14] = 3 leaf-stage of barnyard grass, 600 g/10a.

CC1CCCCN1C(=O)SCCCCCl (stereo not drawn) [Compound 1, S-(4-chlorobutyl)-(2-methyl)-piperidine-1-carbothioate]
Herbicidal activity Hotarui (Scirpus juncoides) ([1]; 150 g/10a.): 4 (70 to 89%) | Herbicidal activity Hotarui (Scirpus juncoides) ([1]; 300 g/10a.): 5 (more than 90%) | Herbicidal activity Hotarui (Scirpus juncoides) ([1]; 600 g/10a.): 5 (more than 90%) | LC50 at 48 h ([2]; 48 hrs, read-out: Median lethal concentration TLm (48hrs)): 11 µg/mL (≈ 44 µM) | LC50 at 96 h ([2]; 96 hrs, read-out: Median lethal concentration TLm (96hrs)): 10 µg/mL (≈ 40 µM) | Herbicidal activity Mizugayatsuri (Cyperus serotinus) ([3]; 150 g/10a.): 4 (70 to 89%) | Herbicidal activity Mizugayatsuri (Cyperus serotinus) ([3]; 300 g/10a.): 4 (70 to 89%) | Herbicidal activity Mizugayatsuri (Cyperus serotinus) ([3]; 600 g/10a.): 5 (more than 90%) | Herbicidal activity broad-leaf weeds ([4]; 150 g/10a.): 5 (more than 90%) | Herbicidal activity broad-leaf weeds ([4]; 300 g/10a.): 5 (more than 90%) | Herbicidal activity broad-leaf weeds ([4]; 600 g/10a.): 5 (more than 90%) | herbicidal activity (barnyard grass) ([5]; 150 g/10a.): 5 (more than 90%) | herbicidal activity (barnyard grass) ([5]; 300 g/10a.): 5 (more than 90%) | herbicidal activity (barnyard grass) ([5]; 600 g/10a.): 5 (more than 90%) | herbicidal activity (barnyard grass) [6, 9]: 5 (more than 90%) | herbicidal activity (barnyard grass) [6, 10]: 5 (more than 90%) | herbicidal activity (barnyard grass) [6, 11]: 5 (more than 90%) | herbicidal activity (barnyard grass) [6, 12]: 5 (more than 90%) | herbicidal activity (barnyard grass) [6, 13]: 5 (more than 90%) | herbicidal activity (barnyard grass) [6, 14]: 5 (more than 90%) | survival at 504 h [7]: 100% | Average Hematocrit Value of survival fish [8]: 30%

CCCSC(=O)N1CC(C)CCC(C)C1 (stereo not drawn) [Compound 16, reference compound]
herbicidal activity (barnyard grass) [6, 13]: 3 (50 to 69%)

CCCCSC(=O)N1CC(C)CCC(C)C1 (stereo not drawn) [Compound 17, reference compound]
herbicidal activity (barnyard grass) [6, 13]: 3 (50 to 69%)

CC1CCC(C)CN(C(=O)SCCCCCCCl)C1 (stereo not drawn) [Compound 8, S-(6-chlorohexyl)-3,6-dimethyl-hexahydro-1H-azepine-1-carbothioate]
herbicidal activity (barnyard grass) [6, 9]: 5 (more than 90%) | herbicidal activity (barnyard grass) [6, 10]: 5 (more than 90%) | herbicidal activity (barnyard grass) [6, 11]: 5 (more than 90%) | herbicidal activity (barnyard grass) [6, 12]: 5 (more than 90%) | herbicidal activity (barnyard grass) [6, 13]: 5 (more than 90%) | herbicidal activity (barnyard grass) [6, 14]: 5 (more than 90%) | survival at 504 h [7]: 100% | Average Hematocrit Value of survival fish [8]: 35%

CC1CCCCN1C(=O)SCCCCCCl (stereo not drawn) [Compound 2, S-(5-chloropentyl)-(2-methyl)-piperidine-1-carbothioate]
Herbicidal activity Hotarui (Scirpus juncoides) ([1]; 150 g/10a.): 3 (50 to 69%) | Herbicidal activity Hotarui (Scirpus juncoides) ([1]; 300 g/10a.): 4 (70 to 89%) | Herbicidal activity Hotarui (Scirpus juncoides) ([1]; 600 g/10a.): 5 (more than 90%) | Herbicidal activity Mizugayatsuri (Cyperus serotinus) ([3]; 150 g/10a.): 3 (50 to 69%) | Herbicidal activity Mizugayatsuri (Cyperus serotinus) ([3]; 300 g/10a.): 4 (70 to 89%) | Herbicidal activity Mizugayatsuri (Cyperus serotinus) ([3]; 600 g/10a.): 5 (more than 90%) | Herbicidal activity broad-leaf weeds ([4]; 150 g/10a.): 5 (more than 90%) | Herbicidal activity broad-leaf weeds ([4]; 300 g/10a.): 5 (more than 90%) | Herbicidal activity broad-leaf weeds ([4]; 600 g/10a.): 5 (more than 90%) | herbicidal activity (barnyard grass) ([5]; 150 g/10a.): 5 (more than 90%) | herbicidal activity (barnyard grass) ([5]; 300 g/10a.): 5 (more than 90%) | herbicidal activity (barnyard grass) ([5]; 600 g/10a.): 5 (more than 90%) | herbicidal activity (barnyard grass) [6, 9]: 5 (more than 90%) | herbicidal activity (barnyard grass) [6, 10]: 5 (more than 90%) | herbicidal activity (barnyard grass) [6, 11]: 5 (more than 90%) | herbicidal activity (barnyard grass) [6, 12]: 5 (more than 90%) | herbicidal activity (barnyard grass) [6, 13]: 5 (more than 90%) | herbicidal activity (barnyard grass) [6, 14]: 5 (more than 90%) | survival at 504 h [7]: 100% | Average Hematocrit Value of survival fish [8]: 30%

CC1CCCCN1C(=O)SCCCCCCCl (stereo not drawn) [Compound 3, S-(6-chlorohexyl)-(2-methyl)-piperidine-1-carbothioate]
Herbicidal activity Hotarui (Scirpus juncoides) ([1]; 150 g/10a.): 3 (50 to 69%) | Herbicidal activity Hotarui (Scirpus juncoides) ([1]; 300 g/10a.): 4 (70 to 89%) | Herbicidal activity Hotarui (Scirpus juncoides) ([1]; 600 g/10a.): 5 (more than 90%) | Herbicidal activity Mizugayatsuri (Cyperus serotinus) ([3]; 150 g/10a.): 4 (70 to 89%) | Herbicidal activity Mizugayatsuri (Cyperus serotinus) ([3]; 300 g/10a.): 4 (70 to 89%) | Herbicidal activity Mizugayatsuri (Cyperus serotinus) ([3]; 600 g/10a.): 5 (more than 90%) | Herbicidal activity broad-leaf weeds ([4]; 150 g/10a.): 4 (70 to 89%) | Herbicidal activity broad-leaf weeds ([4]; 300 g/10a.): 5 (more than 90%) | Herbicidal activity broad-leaf weeds ([4]; 600 g/10a.): 5 (more than 90%) | herbicidal activity (barnyard grass) ([5]; 150 g/10a.): 5 (more than 90%) | herbicidal activity (barnyard grass) ([5]; 300 g/10a.): 5 (more than 90%) | herbicidal activity (barnyard grass) ([5]; 600 g/10a.): 5 (more than 90%) | herbicidal activity (barnyard grass) [6, 9]: 5 (more than 90%) | herbicidal activity (barnyard grass) [6, 10]: 5 (more than 90%) | herbicidal activity (barnyard grass) [6, 11]: 5 (more than 90%) | herbicidal activity (barnyard grass) [6, 12]: 4 (70 to 89%) | herbicidal activity (barnyard grass) [6, 13]: 5 (more than 90%) | herbicidal activity (barnyard grass) [6, 14]: 5 (more than 90%)

CCSC(=O)N1CC(C)CCC(C)C1 (stereo not drawn) [Compound 15, reference compound]
herbicidal activity (barnyard grass) [6, 13]: 3 (50 to 69%)

CC1CCCCN1C(=O)SCCCCCCCCCl (stereo not drawn) [Compound 4, S-(8-chlorooctyl)-(2-methyl)-piperidine-1-carbothioate]
Herbicidal activity Hotarui (Scirpus juncoides) ([1]; 150 g/10a.): 2 (30 to 49%) | Herbicidal activity Hotarui (Scirpus juncoides) ([1]; 300 g/10a.): 4 (70 to 89%) | Herbicidal activity Hotarui (Scirpus juncoides) ([1]; 600 g/10a.): 5 (more than 90%) | Herbicidal activity Mizugayatsuri (Cyperus serotinus) ([3]; 150 g/10a.): 2 (30 to 49%) | Herbicidal activity Mizugayatsuri (Cyperus serotinus) ([3]; 300 g/10a.): 3 (50 to 69%) | Herbicidal activity Mizugayatsuri (Cyperus serotinus) ([3]; 600 g/10a.): 5 (more than 90%) | Herbicidal activity broad-leaf weeds ([4]; 150 g/10a.): 3 (50 to 69%) | Herbicidal activity broad-leaf weeds ([4]; 300 g/10a.): 4 (70 to 89%) | Herbicidal activity broad-leaf weeds ([4]; 600 g/10a.): 5 (more than 90%) | herbicidal activity (barnyard grass) ([5]; 150 g/10a.): 4 (70 to 89%) | herbicidal activity (barnyard grass) ([5]; 300 g/10a.): 5 (more than 90%) | herbicidal activity (barnyard grass) ([5]; 600 g/10a.): 5 (more than 90%) | herbicidal activity (barnyard grass) [6, 9]: 5 (more than 90%) | herbicidal activity (barnyard grass) [6, 10]: 5 (more than 90%) | herbicidal activity (barnyard grass) [6, 11]: 5 (more than 90%) | herbicidal activity (barnyard grass) [6, 12]: 4 (70 to 89%) | herbicidal activity (barnyard grass) [6, 13]: 5 (more than 90%) | herbicidal activity (barnyard grass) [6, 14]: 5 (more than 90%)

CSC(=O)N1CC(C)CCC(C)C1 (stereo not drawn) [Compound 14, reference compound]
herbicidal activity (barnyard grass) [6, 13]: 3 (50 to 69%)

CCCCCCCCCCSC(=O)N1CC(C)CCC(C)C1 (stereo not drawn) [Compound 19, reference compound]
herbicidal activity (barnyard grass) [6, 13]: 1 (10 to 29%)

CC1CCCCN1C(=O)SCCCCCCCCCCCl (stereo not drawn) [Compound 5, S-(10-chlorodecyl)-(2-methyl)-piperidine-1-carbothioate]
Herbicidal activity Hotarui (Scirpus juncoides) ([1]; 300 g/10a.): 4 (70 to 89%) | Herbicidal activity Hotarui (Scirpus juncoides) ([1]; 600 g/10a.): 5 (more than 90%) | Herbicidal activity Mizugayatsuri (Cyperus serotinus) ([3]; 300 g/10a.): 3 (50 to 69%) | Herbicidal activity Mizugayatsuri (Cyperus serotinus) ([3]; 600 g/10a.): 5 (more than 90%) | Herbicidal activity broad-leaf weeds ([4]; 300 g/10a.): 4 (70 to 89%) | Herbicidal activity broad-leaf weeds ([4]; 600 g/10a.): 5 (more than 90%) | herbicidal activity (barnyard grass) ([5]; 300 g/10a.): 5 (more than 90%) | herbicidal activity (barnyard grass) ([5]; 600 g/10a.): 5 (more than 90%) | herbicidal activity (barnyard grass) [6, 10]: 5 (more than 90%) | herbicidal activity (barnyard grass) [6, 11]: 5 (more than 90%) | herbicidal activity (barnyard grass) [6, 13]: 4 (70 to 89%) | herbicidal activity (barnyard grass) [6, 14]: 5 (more than 90%)

CC1CCC(C)CN(C(=O)SCCCCCCCl)C1 (stereo not drawn) [Compound, S-(6-chlorohexyl)-3,6-dimethyl-hexahydro-1H-azepine-1-carbothioate]
Herbicidal activity Hotarui (Scirpus juncoides) ([1]; 150 g/10a.): 3 (50 to 69%) | Herbicidal activity Hotarui (Scirpus juncoides) ([1]; 300 g/10a.): 5 (more than 90%) | Herbicidal activity Mizugayatsuri (Cyperus serotinus) ([3]; 150 g/10a.): 2 (30 to 49%) | Herbicidal activity Mizugayatsuri (Cyperus serotinus) ([3]; 300 g/10a.): 4 (70 to 89%) | Herbicidal activity broad-leaf weeds ([4]; 150 g/10a.): 3 (50 to 69%) | Herbicidal activity broad-leaf weeds ([4]; 300 g/10a.): 5 (more than 90%) | herbicidal activity (barnyard grass) ([5]; 150 g/10a.): 5 (more than 90%) | herbicidal activity (barnyard grass) ([5]; 300 g/10a.): 5 (more than 90%)
